{
  "source": "patent US11426379B2",
  "about": "“Combination of local and systemic therapies for enhanced treatment of dermatologic conditions” (The Rockefeller University, priority 2017, dated 2022)",
  "origin": "cited, not measured here",
  "system": "rabbit skin",
  "conditions": "intradermal injection, presence of light, reversible with beta-carotene",
  "data": [
    {"smiles": "O=C1OC2(c3cc(I)c(O)c(I)c3Oc3c2cc(I)c(O)c3I)c2c(Cl)c(Cl)c(Cl)c(Cl)c21", "note": "[rose bengal, 4,5,6,7-tetrachloro-2′,4′,5′,7′-tetraiodofluorescein]", "values": [
      {"measurement": "polymorphonuclear leukocyte accumulation, histamine release and erythema", "value": "polymorphonuclear leukocyte accumulation and histamine release with accompanying increased erythema"}
    ]}
  ]
}
